Experimental findings from ChEMBL document CHEMBL5728890, “HDAC6 inhibitors and imaging agents” (2021) are described below.

Assay [1] has as its target Histone deacetylase 4 (Homo sapiens, UniProt P56524). Put plainly: (§1) IC50 Assay: IC50 measurements were conducted by BPS Biosciences (Table 1) or by Nanosyn (Table 1A) with an established fluorescence assay.
Assay [2] has as its target Histone deacetylase 5 (Homo sapiens, UniProt Q9UQL6). Described as §1.
In assay [3] the target is T1, Histone deacetylase 7 (Homo sapiens, UniProt Q8WUI4).
T1 sequence (Q8WUI4 whole entry): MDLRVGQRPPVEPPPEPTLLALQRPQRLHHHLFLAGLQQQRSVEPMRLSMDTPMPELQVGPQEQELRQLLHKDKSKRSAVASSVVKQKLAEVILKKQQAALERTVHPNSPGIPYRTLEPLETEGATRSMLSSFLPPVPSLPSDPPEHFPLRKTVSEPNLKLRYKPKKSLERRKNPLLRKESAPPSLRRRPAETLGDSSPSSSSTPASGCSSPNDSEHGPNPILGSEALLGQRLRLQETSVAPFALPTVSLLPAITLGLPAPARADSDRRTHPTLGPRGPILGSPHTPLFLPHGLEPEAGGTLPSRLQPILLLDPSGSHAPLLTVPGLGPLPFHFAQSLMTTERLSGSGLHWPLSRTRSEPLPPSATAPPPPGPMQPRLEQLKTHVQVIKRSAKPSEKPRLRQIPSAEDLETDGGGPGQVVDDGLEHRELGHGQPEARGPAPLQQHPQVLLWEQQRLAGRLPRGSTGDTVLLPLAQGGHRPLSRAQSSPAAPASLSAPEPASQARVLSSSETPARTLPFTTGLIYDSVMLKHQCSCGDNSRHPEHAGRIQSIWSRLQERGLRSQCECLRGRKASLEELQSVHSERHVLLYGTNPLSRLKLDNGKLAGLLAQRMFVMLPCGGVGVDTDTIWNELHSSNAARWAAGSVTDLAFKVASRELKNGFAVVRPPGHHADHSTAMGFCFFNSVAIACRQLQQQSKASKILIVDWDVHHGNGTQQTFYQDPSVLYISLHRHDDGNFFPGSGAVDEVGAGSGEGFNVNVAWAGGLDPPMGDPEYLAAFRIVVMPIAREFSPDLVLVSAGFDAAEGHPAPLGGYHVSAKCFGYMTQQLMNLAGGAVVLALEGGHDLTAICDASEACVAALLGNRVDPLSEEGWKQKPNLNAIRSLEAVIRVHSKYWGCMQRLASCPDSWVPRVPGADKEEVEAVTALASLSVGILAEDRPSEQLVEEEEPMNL
The description is as §1.

Assay [4] addresses T2, Histone deacetylase 8 (Homo sapiens, UniProt Q9BY41).
T2 sequence (Q9BY41 whole entry): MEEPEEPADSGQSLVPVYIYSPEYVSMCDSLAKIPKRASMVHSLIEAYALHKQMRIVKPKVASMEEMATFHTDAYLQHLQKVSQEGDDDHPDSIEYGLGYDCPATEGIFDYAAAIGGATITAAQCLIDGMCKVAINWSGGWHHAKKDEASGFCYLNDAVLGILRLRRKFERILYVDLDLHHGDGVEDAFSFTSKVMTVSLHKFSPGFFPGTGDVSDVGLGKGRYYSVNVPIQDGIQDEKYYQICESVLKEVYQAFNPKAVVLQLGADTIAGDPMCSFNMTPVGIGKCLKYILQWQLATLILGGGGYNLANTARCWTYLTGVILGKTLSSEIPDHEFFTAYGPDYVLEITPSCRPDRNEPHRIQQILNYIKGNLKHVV
The assay is described as §1.

The target of assay [5] is T3, Protein deacetylase HDAC6 (Homo sapiens, UniProt Q9UBN7).
T3 sequence (Q9UBN7 whole entry): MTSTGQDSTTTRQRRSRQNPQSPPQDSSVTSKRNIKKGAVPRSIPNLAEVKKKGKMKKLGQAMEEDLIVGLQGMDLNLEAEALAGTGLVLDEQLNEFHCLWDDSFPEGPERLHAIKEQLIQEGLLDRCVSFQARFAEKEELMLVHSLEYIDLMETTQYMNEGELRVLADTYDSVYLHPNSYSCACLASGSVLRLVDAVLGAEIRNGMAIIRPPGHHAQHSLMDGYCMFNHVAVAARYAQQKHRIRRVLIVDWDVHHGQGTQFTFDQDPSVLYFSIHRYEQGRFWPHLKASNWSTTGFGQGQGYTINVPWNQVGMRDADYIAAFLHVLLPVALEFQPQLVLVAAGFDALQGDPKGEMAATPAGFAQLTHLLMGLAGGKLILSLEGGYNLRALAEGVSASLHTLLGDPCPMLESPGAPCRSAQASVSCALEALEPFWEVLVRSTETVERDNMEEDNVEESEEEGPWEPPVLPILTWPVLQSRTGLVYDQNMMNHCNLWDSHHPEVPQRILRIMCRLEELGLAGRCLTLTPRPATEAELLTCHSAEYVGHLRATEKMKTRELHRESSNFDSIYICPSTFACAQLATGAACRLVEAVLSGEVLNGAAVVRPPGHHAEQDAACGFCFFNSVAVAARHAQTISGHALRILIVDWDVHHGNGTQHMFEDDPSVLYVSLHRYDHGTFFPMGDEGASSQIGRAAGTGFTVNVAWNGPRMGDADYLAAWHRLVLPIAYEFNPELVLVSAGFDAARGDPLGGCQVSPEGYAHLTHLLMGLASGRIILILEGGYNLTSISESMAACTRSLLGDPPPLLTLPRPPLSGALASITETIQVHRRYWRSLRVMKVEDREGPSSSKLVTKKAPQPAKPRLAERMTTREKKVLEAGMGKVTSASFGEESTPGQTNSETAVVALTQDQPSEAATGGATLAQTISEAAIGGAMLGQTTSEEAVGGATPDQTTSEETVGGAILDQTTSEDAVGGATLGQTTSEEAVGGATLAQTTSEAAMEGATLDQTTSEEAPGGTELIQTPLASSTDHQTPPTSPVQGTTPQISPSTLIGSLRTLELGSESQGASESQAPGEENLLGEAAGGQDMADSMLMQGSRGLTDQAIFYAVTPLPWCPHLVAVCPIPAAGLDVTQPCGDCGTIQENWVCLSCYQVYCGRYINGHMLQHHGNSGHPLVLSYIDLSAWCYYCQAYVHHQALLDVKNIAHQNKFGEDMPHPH
The assay is described as §1.

Assay [6] concerns the target T4, Histone deacetylase 11 (Homo sapiens, UniProt Q96DB2).
T4 sequence (Q96DB2 whole entry): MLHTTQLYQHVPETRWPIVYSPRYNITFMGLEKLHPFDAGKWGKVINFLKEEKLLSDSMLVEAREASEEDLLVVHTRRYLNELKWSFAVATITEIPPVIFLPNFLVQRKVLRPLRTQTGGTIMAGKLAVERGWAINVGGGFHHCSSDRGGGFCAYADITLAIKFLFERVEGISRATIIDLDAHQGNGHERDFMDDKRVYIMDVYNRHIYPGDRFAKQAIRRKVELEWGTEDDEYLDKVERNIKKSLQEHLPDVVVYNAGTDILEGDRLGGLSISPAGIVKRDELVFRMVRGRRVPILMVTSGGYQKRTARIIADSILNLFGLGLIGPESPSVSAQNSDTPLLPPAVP
The description is as §1.

Assay [7] addresses Histone deacetylase 9 (Homo sapiens, UniProt Q9UKV0). The assay is described as §1.
The target in assay [8] is Histone deacetylase 3 (Homo sapiens, UniProt O15379). The description is as §1.
Assay [9] has as its target Histone deacetylase 1 (Homo sapiens, UniProt Q13547). Described as §1.
In assay [10] the target is T5, Polyamine deacetylase HDAC10 (Homo sapiens, UniProt Q969S8).
T5 sequence (Q969S8 whole entry): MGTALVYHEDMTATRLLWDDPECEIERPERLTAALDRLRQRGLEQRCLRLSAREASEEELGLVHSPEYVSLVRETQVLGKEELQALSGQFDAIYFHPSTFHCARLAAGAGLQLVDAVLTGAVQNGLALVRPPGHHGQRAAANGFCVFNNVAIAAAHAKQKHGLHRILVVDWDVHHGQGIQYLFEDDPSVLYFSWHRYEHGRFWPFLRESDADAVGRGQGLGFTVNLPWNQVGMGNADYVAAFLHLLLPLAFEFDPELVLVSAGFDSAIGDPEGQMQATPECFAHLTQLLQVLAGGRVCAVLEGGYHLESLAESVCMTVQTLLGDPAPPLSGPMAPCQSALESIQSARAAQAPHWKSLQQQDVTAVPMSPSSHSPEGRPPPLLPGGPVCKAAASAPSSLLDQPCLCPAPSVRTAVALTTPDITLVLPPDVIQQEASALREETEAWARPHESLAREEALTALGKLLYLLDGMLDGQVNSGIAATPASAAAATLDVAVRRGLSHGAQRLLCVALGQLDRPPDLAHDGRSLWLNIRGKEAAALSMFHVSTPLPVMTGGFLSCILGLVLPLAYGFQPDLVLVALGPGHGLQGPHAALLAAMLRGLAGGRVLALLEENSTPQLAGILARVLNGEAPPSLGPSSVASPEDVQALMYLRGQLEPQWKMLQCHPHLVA
The assay is described as §1.

Sequence of Histone deacetylase 4 (P56524 whole entry): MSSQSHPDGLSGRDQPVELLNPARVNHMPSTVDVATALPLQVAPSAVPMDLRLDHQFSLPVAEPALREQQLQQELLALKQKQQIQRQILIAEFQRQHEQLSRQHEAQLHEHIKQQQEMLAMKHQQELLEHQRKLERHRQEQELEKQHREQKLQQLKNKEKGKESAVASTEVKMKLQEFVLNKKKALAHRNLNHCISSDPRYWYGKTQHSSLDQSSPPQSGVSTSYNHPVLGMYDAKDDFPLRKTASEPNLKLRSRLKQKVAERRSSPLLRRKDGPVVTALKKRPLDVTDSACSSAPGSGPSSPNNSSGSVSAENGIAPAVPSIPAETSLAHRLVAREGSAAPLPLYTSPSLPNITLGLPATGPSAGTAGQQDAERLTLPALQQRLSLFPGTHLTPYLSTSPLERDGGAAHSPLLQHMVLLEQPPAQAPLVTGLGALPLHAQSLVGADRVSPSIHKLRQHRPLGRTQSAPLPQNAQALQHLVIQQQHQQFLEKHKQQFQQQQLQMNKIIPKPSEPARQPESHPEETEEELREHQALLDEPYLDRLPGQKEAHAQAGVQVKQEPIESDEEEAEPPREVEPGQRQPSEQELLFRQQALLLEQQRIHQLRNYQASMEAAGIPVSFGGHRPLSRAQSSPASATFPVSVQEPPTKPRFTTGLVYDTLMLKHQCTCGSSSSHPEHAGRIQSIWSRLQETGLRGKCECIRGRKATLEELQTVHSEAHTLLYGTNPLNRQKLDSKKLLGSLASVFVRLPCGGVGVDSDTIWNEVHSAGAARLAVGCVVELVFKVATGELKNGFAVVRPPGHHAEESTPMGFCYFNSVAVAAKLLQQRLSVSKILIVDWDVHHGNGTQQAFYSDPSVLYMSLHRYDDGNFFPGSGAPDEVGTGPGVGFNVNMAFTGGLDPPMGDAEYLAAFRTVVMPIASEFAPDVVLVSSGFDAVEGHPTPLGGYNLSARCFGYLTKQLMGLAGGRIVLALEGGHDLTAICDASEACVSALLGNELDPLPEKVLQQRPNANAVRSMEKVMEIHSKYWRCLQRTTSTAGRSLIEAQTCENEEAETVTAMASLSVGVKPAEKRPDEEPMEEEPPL
Sequence of Histone deacetylase 9 (Q9UKV0 whole entry): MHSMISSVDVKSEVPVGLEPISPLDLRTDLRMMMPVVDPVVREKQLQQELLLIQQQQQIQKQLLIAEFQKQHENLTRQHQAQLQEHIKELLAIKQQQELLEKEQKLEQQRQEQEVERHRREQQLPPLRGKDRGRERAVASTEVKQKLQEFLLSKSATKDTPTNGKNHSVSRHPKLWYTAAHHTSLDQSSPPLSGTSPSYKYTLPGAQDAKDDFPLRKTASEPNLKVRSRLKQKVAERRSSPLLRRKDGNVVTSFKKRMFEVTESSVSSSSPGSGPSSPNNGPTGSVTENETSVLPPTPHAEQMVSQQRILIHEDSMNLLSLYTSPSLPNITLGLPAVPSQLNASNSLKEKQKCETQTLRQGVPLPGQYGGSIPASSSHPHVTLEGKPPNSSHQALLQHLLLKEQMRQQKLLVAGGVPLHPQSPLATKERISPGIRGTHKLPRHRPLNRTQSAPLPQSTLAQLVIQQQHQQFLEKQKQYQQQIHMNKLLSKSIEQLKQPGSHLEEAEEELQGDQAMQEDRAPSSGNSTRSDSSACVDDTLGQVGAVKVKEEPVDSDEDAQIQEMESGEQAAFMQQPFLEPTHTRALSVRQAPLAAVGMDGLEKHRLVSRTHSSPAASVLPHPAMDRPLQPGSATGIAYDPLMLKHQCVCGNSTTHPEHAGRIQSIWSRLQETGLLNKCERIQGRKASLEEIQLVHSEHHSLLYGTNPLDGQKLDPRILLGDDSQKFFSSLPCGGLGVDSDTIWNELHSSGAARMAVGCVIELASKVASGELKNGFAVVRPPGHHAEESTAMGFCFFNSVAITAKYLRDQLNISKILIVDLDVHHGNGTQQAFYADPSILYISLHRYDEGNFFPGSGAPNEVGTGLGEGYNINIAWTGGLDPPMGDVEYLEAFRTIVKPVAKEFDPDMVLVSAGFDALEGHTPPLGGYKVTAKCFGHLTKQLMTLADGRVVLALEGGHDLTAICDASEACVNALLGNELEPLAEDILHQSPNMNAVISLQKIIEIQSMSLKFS
Sequence of Histone deacetylase 1 (Q13547 whole entry): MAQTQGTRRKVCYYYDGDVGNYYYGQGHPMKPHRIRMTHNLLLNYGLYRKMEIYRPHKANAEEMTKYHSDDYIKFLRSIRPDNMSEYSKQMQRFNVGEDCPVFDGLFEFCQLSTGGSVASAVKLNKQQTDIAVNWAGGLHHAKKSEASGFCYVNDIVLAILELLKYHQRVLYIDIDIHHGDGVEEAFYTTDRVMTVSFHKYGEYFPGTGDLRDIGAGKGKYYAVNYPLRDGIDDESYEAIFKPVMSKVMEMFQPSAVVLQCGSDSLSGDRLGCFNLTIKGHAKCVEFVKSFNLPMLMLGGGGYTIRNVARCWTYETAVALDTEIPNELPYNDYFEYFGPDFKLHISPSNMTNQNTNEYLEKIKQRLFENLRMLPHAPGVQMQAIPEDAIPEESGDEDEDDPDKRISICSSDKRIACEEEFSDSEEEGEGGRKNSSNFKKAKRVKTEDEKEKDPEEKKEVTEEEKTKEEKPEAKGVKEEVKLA
Sequence of Histone deacetylase 5 (Q9UQL6 whole entry): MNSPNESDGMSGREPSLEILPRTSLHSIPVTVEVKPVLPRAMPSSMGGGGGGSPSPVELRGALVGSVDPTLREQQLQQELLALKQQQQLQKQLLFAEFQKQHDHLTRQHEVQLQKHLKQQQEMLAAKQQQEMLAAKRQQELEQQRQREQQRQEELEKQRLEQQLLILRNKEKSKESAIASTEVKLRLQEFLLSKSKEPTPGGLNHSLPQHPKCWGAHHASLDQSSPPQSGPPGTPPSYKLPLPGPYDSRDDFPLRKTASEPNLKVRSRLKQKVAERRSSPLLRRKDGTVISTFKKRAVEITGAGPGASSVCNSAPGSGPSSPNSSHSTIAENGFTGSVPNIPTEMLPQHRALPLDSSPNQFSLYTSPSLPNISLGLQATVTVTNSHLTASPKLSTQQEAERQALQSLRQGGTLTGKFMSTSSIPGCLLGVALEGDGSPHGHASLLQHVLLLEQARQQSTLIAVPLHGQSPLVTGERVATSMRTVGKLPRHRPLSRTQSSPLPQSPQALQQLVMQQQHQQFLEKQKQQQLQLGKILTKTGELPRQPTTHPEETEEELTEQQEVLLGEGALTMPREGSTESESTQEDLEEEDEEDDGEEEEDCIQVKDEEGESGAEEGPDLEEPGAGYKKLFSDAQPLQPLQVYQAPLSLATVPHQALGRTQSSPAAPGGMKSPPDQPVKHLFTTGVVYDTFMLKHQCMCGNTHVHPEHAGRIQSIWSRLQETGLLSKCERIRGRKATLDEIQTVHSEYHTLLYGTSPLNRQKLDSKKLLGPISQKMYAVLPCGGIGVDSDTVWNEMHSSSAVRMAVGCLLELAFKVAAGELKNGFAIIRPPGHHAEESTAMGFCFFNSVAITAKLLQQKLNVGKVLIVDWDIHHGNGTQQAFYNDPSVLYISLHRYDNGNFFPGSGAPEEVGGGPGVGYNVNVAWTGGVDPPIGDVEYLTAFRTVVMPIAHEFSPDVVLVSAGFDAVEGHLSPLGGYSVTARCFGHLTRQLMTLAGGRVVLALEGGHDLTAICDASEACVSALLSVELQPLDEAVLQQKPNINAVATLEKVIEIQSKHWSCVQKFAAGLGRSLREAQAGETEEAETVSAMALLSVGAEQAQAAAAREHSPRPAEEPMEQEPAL
Sequence of Histone deacetylase 3 (O15379 whole entry): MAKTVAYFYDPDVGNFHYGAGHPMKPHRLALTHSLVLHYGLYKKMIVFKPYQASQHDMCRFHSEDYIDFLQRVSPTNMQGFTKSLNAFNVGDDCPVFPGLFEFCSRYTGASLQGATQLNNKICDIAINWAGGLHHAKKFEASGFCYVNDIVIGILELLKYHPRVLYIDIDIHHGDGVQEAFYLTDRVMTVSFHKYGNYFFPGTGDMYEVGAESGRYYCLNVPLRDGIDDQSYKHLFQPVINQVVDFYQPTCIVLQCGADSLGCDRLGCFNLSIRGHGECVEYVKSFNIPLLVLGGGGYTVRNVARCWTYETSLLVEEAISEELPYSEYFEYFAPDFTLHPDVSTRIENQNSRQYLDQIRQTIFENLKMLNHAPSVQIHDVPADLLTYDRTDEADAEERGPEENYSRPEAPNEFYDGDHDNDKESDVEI

With `CN(Cc1ccc(/C=C/C(=O)NO)cc1F)CC12CC3CC(CC(C3)C1)C2`, the concentration for half-maximal inhibition (IC50) (commonly the concentration at which inhibition is half-maximal) in assay [1] is more than 1000 nM; in assay [2] it was more than 1000 nM; in assay [3], more than 1000 nM; in [4], more than 1000 nM; in assay [5] it was 180 nM; in assay [6], more than 1000 nM. Further, the half-maximal inhibitory concentration (IC50) in [7] is more than 1000 nM; in assay [8], 23 nM; in assay [9], 17 nM; in assay [10], 33 nM.

For the compound `CC(=O)Nc1ccc(C(=O)Nc2ccccc2N)cc1` [TACEDINALINE], the IC50 in assay [6] stood at 2830 nM.

Take `O=C(CCCCCCNC(=O)c1cnc(N(c2ccccc2)c2ccccc2)nc1)NO` [RICOLINOSTAT]: in assay [10], the IC50 is more than 1000 nM.
